Columns and labels:
[1] = log P by HPLC on reversed-phase column (C18), EEC Directive 79/831 Annex V.A8
Source text: Called log P (HCOOH) in the table.
Called log P (neutral) in the table.

Myzus persicae = Myzus persicae spray test (Chinese cabbage leaf discs); format: in vivo; settings: after 6 days, aphids killed
Experimental: Myzus persicae Spray Test
Solvent: 78 parts by weight of acetone
(§1) • 1.5 parts by weight of dimethylformamide Emulsifier: alkylaryl polyglycol ether
(§2) To produce a suitable preparation of active compound, 1 part by weight of active compound is dissolved using the stated parts by weight of solvent and made up with water containing an emulsifier concentration of 1000 ppm until the desired concentration is attained. To produce further test concentrations, the preparation is diluted with emulsifier-containing water.
Discs of Chinese cabbage leaves (Brassica pekinensis) infested by all stages of the green peach aphid (Myzus persicae) are sprayed with an active compound preparation of the desired concentration.
After 6 days, the efficacy in % is determined. 100% means that all the aphids have been killed; 0% means that no aphids have been killed.

Phaedon cochleariae = Phaedon cochleariae spray test; format: in vivo; settings: after 7 days, beetle larvae killed; for pest or weed control at 500 g/ha: Phaedon cochleariae, 168 h, read-out: efficacy in %
Experimental: Phaedon cochleariae-Spray Test
Solvent: 78.0 parts by weight of acetone
as §1, §2
After 7 days, the efficacy in % is determined. 100% means that all the beetle larvae have been killed; 0% means that no beetle larvae have been killed.

[2] = LC-MS acidic range, pH 2.7 (HCOOH), C18, 55° C.
[3] = LC-MS neutral range, pH 7.8, C18, 55° C.
[4] = reversed-phase HPLC column (C18), pH 2.7, logP-acidic, LC-MS acidic range, pH 2.7 (HCOOH), C18, 55° C.
[5] = reversed-phase HPLC column (C18), pH 7.8, log P (neutral), preparation examples, neutral range, pH 7.8
[6] = reversed-phase HPLC column (C18), pH 7.8, logP-neutral, LC-MS neutral range, pH 7.8, C18, 55° C.

Row | Structure (SMILES) | logP-acidic ([1]; pH 2.7) | logP-neutral ([1]; pH 7.8) | efficacy in % (Phaedon cochleariae; 500 g/ha) [%] | chromatographic logP [1, 5] | further results
1 | CCS(=O)(=O)Nc1ccc(S(=O)(=O)CC)c(-c2nc3cc(C(F)(F)F)ncc3n2C)n1 [Example 59] | 2.08 | 0.90 | – | – | efficacy in % (Myzus persicae; 100 g/ha): 100%
2 | CCNC(=O)c1ccc(S(=O)(=O)CC)c(-c2nc3cc(C(F)(F)F)ncc3n2C)n1 [Example 32] | 2.29 | 2.22 | 100 | – | –
3 | CCS(=O)(=O)c1ccc(NC(=O)CSC)nc1-c1nc2cc(C(F)(F)F)ncc2n1C [Example 53] | 2.51 | 2.38 | 100 | – | efficacy in % (Myzus persicae; 500 g/ha): 90%
4 | CCC(=O)Nc1ccc([S+]([O-])CC)c(-c2nc3cc(C(F)(F)F)ncc3n2C)n1 (stereo not shown) [Example 2] | 2.33 | 2.25 | 100 | – | efficacy in % (Myzus persicae; 500 g/ha): 90%
5 | CCSc1ccc(NC(=O)C2CC2)nc1-c1nc2cc(C(F)(F)F)ncc2n1C [Example 1] | 2.80 | 2.79 | 100 | – | –
6 | CCS(=O)(=O)c1ccc(N(C)C(C)=O)nc1-c1nc2cc(C(F)(F)F)ncc2n1C [Example 69] | – | – | 100 | – | logP-acidic [1, 2]: 2.11; logP-neutral [1, 3]: 2.10; efficacy in % (Myzus persicae; 500 g/ha): 90%
7 | CCS(=O)(=O)c1ccc(NC(=O)C(C)CS(C)(=O)=O)nc1-c1nc2cc(C(F)(F)F)ncc2n1C (stereo not shown) [Example 61] | 2.02 | – | 100 | – | efficacy in % (Myzus persicae; 500 g/ha): 100%
8 | CCSc1ccc(NC(=O)C(F)(F)F)nc1-c1nc2cc(C(F)(F)F)ncc2n1C [Example 6] | 3.18 | – | 100 | – | –
9 | CCS(=O)(=O)c1ccc(NC(=O)Cc2ccccc2)nc1-c1nc2cc(C(F)(F)F)ncc2n1C [Example 68] | – | – | 100 | – | –
10 | CCSc1ccc(NC(=O)c2ccccc2)nc1-c1nc2cc(C(F)(F)F)ncc2n1C [Example 19] | 3.36 | – | – | – | –
11 | CCS(=O)(=O)c1ccc(S(=O)(=O)CC)c(-c2nc3cc(C(F)(F)F)ncc3n2C)n1 [Example 15, 2-[3,6-Bis(ethylsulphonyl)pyridin-2-yl]-3-methyl-6-(trifluoromethyl)-3H-imidazo[4,5-c]pyridine] | – | – | – | 2.27 | chromatographic logP [1, 4]: 2.31; chromatographic logP [1, 6]: 2.28; pest or weed control at 500 g/ha (Phaedon cochleariae; 500 g/ha): 100%
12 | CCS(=O)(=O)c1ccc(C(=O)O)nc1-c1nc2cc(C(F)(F)F)ncc2n1C [5-(Ethylsulphonyl)-6-[3-methyl-6-(trifluoromethyl)-3H-imidazo[4,5-c]pyridin-2-yl]pyridine-2-carboxylic acid] | – | – | – | 0.76 | –
13 | CCS(=O)(=O)c1ccc(NC(=O)c2ccc(Cl)cc2)nc1-c1nc2cc(C(F)(F)F)ncc2n1C [Example 73] | 3.37 | 3.37 | – | – | efficacy in % (Phaedon cochleariae; 100 g/ha): 100%
14 | CCSc1ccc(F)nc1-c1nc2cc(C(F)(F)F)ncc2n1C [Ex. XI-2, 2-[3-(Ethylsulphanyl)-6-fluoropyridin-2-yl]-3-methyl-6-(trifluoromethyl)-3H-imidazo[4,5-c]pyridine] | – | – | – | 2.73 | –
15 | CCS(=O)(=O)c1ccc(F)nc1-c1nc2cc(C(F)(F)F)ncc2n1C [Ex. XIII-2, 2-[3-(Ethylsulphonyl)-6-fluoropyridin-2-yl]-3-methyl-6-(trifluoromethyl)-3H-imidazo[4,5-c]pyridine] | – | – | – | 2.3 | –
16 | CCS(=O)(=O)c1ccc(NC(C)=O)nc1-c1nc2cc(C(F)(F)F)ncc2n1C [N-[5-Ethylsulphonyl-6-[3-methyl-6-(trifluoromethyl)imidazo[4,5-c]pyridin-2-yl]-2-pyridyl]acetamide] | – | – | – | 2.01 | –
17 | CCS(=O)(=O)c1ccc(SCc2ccccc2)nc1-c1nc2cc(C(F)(F)F)ncc2n1C [Example 30, 2-[6-(Benzylsulphanyl)-3-(ethylsulphonyl)pyridin-2-yl]-3-methyl-6-(trifluoromethyl)-3H-imidazo[4,5-c]pyridine] | – | – | – | – | chromatographic logP ([1]; pH 2.7): 3.81; chromatographic logP ([1]; pH 7.8): 3.72
18 | CCS(=O)(=O)c1ccc(S(=O)(=O)NC(C)C)nc1-c1nc2cc(C(F)(F)F)ncc2n1C [Example 49, 5-(Ethylsulphonyl)-N-isopropyl-6-[3-methyl-6-(trifluoromethyl)-3H-imidazo[4,5-c]pyridin-2-yl]pyridine-2-sulphonamide] | – | – | – | 2.49 | chromatographic logP [1, 4]: 2.56; chromatographic logP [1, 6]: 2.49
19 | CCSc1ccc(S(=O)(=O)CC)c(-c2nc3cc(C(F)(F)F)ncc3n2C)n1 [Example 5, 2-[6-(Ethylsulphanyl)-3-(ethylsulphonyl)pyridin-2-yl]-3-methyl-6-(trifluoromethyl)-3H-imidazo[4,5-c]pyridine] | – | – | – | 3.14 | chromatographic logP [1, 4]: 3.19; chromatographic logP [1, 6]: 3.14

Row | Structure (SMILES) | logP-acidic ([1]; pH 2.7) | logP-neutral ([1]; pH 7.8) | efficacy in % (Phaedon cochleariae; 500 g/ha) [%] | chromatographic logP [1, 5] | further results
20 | CCS(=O)(=O)c1ccc(Oc2cc(C(F)(F)F)n[nH]2)nc1-c1nc2cc(C(F)(F)F)ncc2n1C [Example 17] | 2.77 | 2.69 | – | – | –
21 | CCS(=O)(=O)c1ccc(S(C)(=O)=O)nc1-c1nc2cc(C(F)(F)F)ncc2n1C [Example 45] | 2.08 | 2.08 | – | – | –
22 | CCS(=O)(=O)c1ccc([S+]([O-])Cc2ccccc2)nc1-c1nc2cc(C(F)(F)F)ncc2n1C (stereo not shown) [Example 39] | 2.66 | 2.66 | – | – | –
23 | CCS(=O)(=O)c1ccc(N(S(C)(=O)=O)S(C)(=O)=O)nc1-c1nc2cc(C(F)(F)F)ncc2n1C [Example 25] | 2.47 | – | – | – | –
24 | CCSc1ccc(NC(=O)CC)nc1-c1nc2cc(C(F)(F)F)ncc2n1C [Example 27] | 2.73 | 2.62 | 100 | – | –
25 | CCS(=O)(=O)c1ccc(NC(=O)c2cccnc2)nc1-c1nc2cc(C(F)(F)F)ncc2n1C [Example 54] | 2.08 | 2.12 | 100 | – | –
26 | CCCOc1ccc(S(=O)(=O)CC)c(-c2nc3cc(C(F)(F)F)ncc3n2C)n1 [Example 51] | 3.37 | 3.36 | 100 | – | –
27 | CCS(=O)(=O)c1ccc([S+](C)[O-])nc1-c1nc2cc(C(F)(F)F)ncc2n1C (stereo not shown) [Example 44] | – | – | – | – | efficacy in % (Myzus persicae; 500 g/ha): 90%
28 | CCS(=O)(=O)c1ccc(Sc2ccccc2)nc1-c1nc2cc(C(F)(F)F)ncc2n1C [Example 42] | – | – | – | – | logP-acidic [1, 2]: 3.68; logP-neutral [1, 3]: 3.64
29 | CCS(=O)(=O)c1ccc(SC)nc1-c1nc2cc(C(F)(F)F)ncc2n1C [Example 28, 2-[3-(Ethylsulphonyl)-6-(methylsulphanyl)pyridin-2-yl]-3-methyl-6-(trifluoromethyl)-3H-imidazo[4,5-c]pyridine] | – | – | – | 2.75 | chromatographic logP [1, 4]: 2.81; chromatographic logP [1, 6]: 2.75
30 | CCS(=N)(=O)c1ccc(S(=O)(=O)CC)c(-c2nc3cc(C(F)(F)F)ncc3n2C)n1 (stereo not shown) [Example 41, 2-[6-(S-Ethylsulphonimidoyl)-3-(ethylsulphonyl)pyridin-2-yl]-3-methyl-6-(trifluoromethyl)-3H-imidazo[4,5-c]pyridine] | – | – | – | 1.79 | chromatographic logP [1, 4]: 1.78; chromatographic logP [1, 6]: 1.79
31 | CCS(=O)(=O)c1ccc(S(=O)(=O)NC)nc1-c1nc2cc(C(F)(F)F)ncc2n1C [Example 47] | 2.15 | 2.08 | – | – | –
32 | Cn1c(-c2nc(F)ccc2F)nc2cc(C(F)(F)F)ncc21 [Ex. IX-2, 2-(3,6-Difluoropyridin-2-yl)-3-methyl-6-(trifluoromethyl)-3H-imidazo[4,5-c]pyridine] | – | – | – | 2.11 | –
33 | CCS(=O)(=O)c1ccc(NS(C)(=O)=O)nc1-c1nc2cc(C(F)(F)F)ncc2n1C [Example 26, N-{5-(Ethylsulphonyl)-6-[3-methyl-6-(trifluoromethyl)-3H-imidazo[4,5-c]pyridin-2-yl]pyridin-2-yl}methanesulphonamide] | – | – | – | 0.85 | chromatographic logP [1, 4]: 1.92; chromatographic logP [1, 6]: 0.85; pest or weed control at 500 g/ha (Phaedon cochleariae; 500 g/ha): 100%
34 | CCS(=O)(=O)c1ccc(C(=O)OC)nc1-c1nc2cc(C(F)(F)F)ncc2n1C [Example 12, Methyl 5-(ethylsulphonyl)-6-[3-methyl-6-(trifluoromethyl)-3H-imidazo[4,5-c]pyridin-2-yl]pyridine-2-carboxylate] | – | – | – | 2.17 | chromatographic logP [1, 4]: 2.17; chromatographic logP [1, 6]: 2.17
35 | CCS(=O)(=O)c1ccc(C(N)=O)nc1-c1nc2cc(C(F)(F)F)ncc2n1C [Example 46] | – | – | 100 | – | logP-acidic [1, 2]: 1.78; logP-neutral [1, 3]: 1.68
36 | CCNC(=S)c1ccc(S(=O)(=O)CC)c(-c2nc3cc(C(F)(F)F)ncc3n2C)n1 [Example 35] | 3.17 | 3.14 | – | – | –
37 | CCS(=O)(=O)c1ccc(S(=O)(=O)N(C)C)nc1-c1nc2cc(C(F)(F)F)ncc2n1C [Example 50] | 2.54 | 2.47 | – | – | –
38 | CCNS(=O)(=O)c1ccc(S(=O)(=O)CC)c(-c2nc3cc(C(F)(F)F)ncc3n2C)n1 [Example 48] | 2.36 | 2.30 | – | – | –
